Source: patent US6310093A (priority 1998, dated 2001)
“And” between values parts separate entries of the source, which are not always exact repeats. Equal values may be shown once.

What was measured:
[1] = test system: glial cultures (astrocytes); test: Glutamate production in intact glial cultures with added glutamine; format: cell-based, mouse (Swiss Webster)
Description: The glutamate concentration of glial cultures was maintained below 1 μM when cells were maintained in the absence or presence of 2 mM added glutamine or when subjected to hypoxic conditions (see below). The medium glutamate concentration remained unchanged between 7 and 24 h after medium change and was 0.14±0.04 μM and 0.36±0.06μM in medium containing 0.15 mM or 2.0 mM glutamine, respectively. Based on these steady state concentrations and the measured rate of glutamate uptake, the rates of glutamate production in the absence and presence of added glutamine were calculated to be 0.012 μM/min (4.8 pmol/min) and 0.030 μM/min (12 pmol/min), respectively. Thus, the calculated rates of glutamate production by glial cultures are only slightly affected by the addition of glutamine and are similar to those observed in intact neurons cultured in the absence of added glutamine.
Pre-column derivatization with o-phthalaldehyde (OPA, Sigma) and separation by reversed phase HPLC was used. A Gilson HPLC was fitted with a Hewlett-Packard model 1046A fluorimetric detector (excitation 340 nm, emission 420 nm). Medium was collected from cell culture at various times, and frozen at -80° C., prior to dilution of 5 or 10 μl into auto-sampler vials containing 40 or 45 μl dimethylformamide:water 1:3 (derivatives with 2-mercaptoethanol) or 1:9 (derivatives with N-acetyl-L-cysteine). […]
In cultures where glutamate concentrations are (within error) constant, d[Glu]/dt is close to zero, and cellular production of medium glutamate is balanced by its removal, such that glutamate production can be calculated from the steady state equation: […]
Calculations were performed using the slopes of the regression lines which describe the rate constants for glutamate removal and the mean values for culture medium glutamate concentrations. […] For comparative purposes, glutamate production rates can be expressed as pmol of glutamate produced per min in each culture. […]

[2] = test system: ischemic penumbra (dialysate glutamate); test: In vivo microdialysis of ischemic penumbra after MCAO; set-up: species or system rat; conditions: 10 mM glutamine plus 20 mM sodium phosphate, 1 h; ±115%
Description: In further microdialysis experiments, exogenous glutamine was added to the ischemic penumbra via the probe, and dialysis glutamate was measured, as described in Example 7. When 10 mM glutamine plus 20 mM sodium phosphate were perfused into the penumbra for one hour, dialysate glutamate was elevated 315% as compared to control (±115%). […] The effects on glutamate were much more pronounced than on other amino acids measured; therefore, these studies provided further support for the involvement of extracellular glutaminase activity in producing the elevated levels of glutamate in cortical tissue undergoing ischemic damage.
The middle cerebral arteries of rats were occluded as in EXAMPLE 7, and the rats were returned to their cages overnight. The next morning, dialysis probes ([…], 2 mm length, 20,000 dalton cutoff) were inserted into ischemic penumbra (cortex) and perfused with artificial CSF at 3 μl/min for 1 h prior to collection of 10 minute fractions of dialysate. The effectiveness of the occlusion and the placement of probes were verified by TTC staining of 1 mm sections at the conclusion of the experiment. Amino acids in the dialysate were measured by reverse phase HPLC with fluorescence detection, after derivatization of the dialysates with o-phthaldialdehyde and N-acetyl-L-cysteine […]

[3] = test system: mixed neuronal-astrocyte cultures

Q: `NC(=O)CC[C@H](N)C(=O)O` [Gln, glutamine] was tested. Which Glutamate concentration ([1]; Table 2, glial, 2 mM Gln) did it give?
A: Its Glutamate concentration is 0.36 ± 0.06.

Q: What about the “Glutamate production (S)” value ([1]; Table 2, glial, 2 mM Gln) of the same molecule?
A: Its value is 0.03.

Q: And the “glutamate production per culture” value ([1]; glial, 2 mM glutamine)?
A: Its value is 12 pmol/min.

Q: What about the “dialysate glutamate elevation vs control” value [2] of the same molecule?
A: The value was 315%.

Q: What about the Glu [3] of the same molecule?
A: The Glu was 3.1 ± 0.28 and 3.88 ± 0.14.

Q: What about the medium glutamate [3] of the same molecule?
A: The medium glutamate was 2.3 ± 1.1 μM Glu.
